Experimental data as given in patent US5036045A, “Method for increasing growth hormone secretion” (The University of Virginia Alumni Patents Foundation, priority 1988, dated 1991).

Columns and labels:
[1] = adverse effects of continuous administration; type: in vivo
growth hormone secretion [2] = conditions: cited from earlier work
growth hormone secretion [3] = assay: 6 hour infusion followed by insulin (hypoglycemia) stimulus; type: in vivo, human; conditions: insulin given at the end, compared to hypoglycemia after vehicle infusion
Procedure: (§1) In a most recent study the 6 hour infusion was repeated but insulin was given at the end of the infusion to provide an alternate stimulus (hypoglycemia) for growth hormone secretion compared to hypoglycemia after vehicle infusion. […] Next 24 hour infusions of growth hormone releasing factor were performed and the growth hormone and growth hormone releasing factor secretory profile of a patient were studied with ectopic growth hormone releasing factor secretion (Vance et al, J. Clin. Invest., 1985, 75, 1584-1590). In this patient growth hormone secretion was pulsatile despite continuously elevated immunoreactive growth hormone releasing factor levels. To determine if pulsatile growth hormone secretion is maintained in normal subjects, vehicle or growth hormone releasing factor-40, 2 ng/kg/min, was administered to six healthy young men for 24 hours and gave a supramaximal intravenous bolus dose of growth hormone releasing factor-40, 3 μg/kg after 23.5 hours of infusion.

growth hormone secretion [4] = assay: 14-day continuous intravenous infusion by mechanical pump, 24 hour growth hormone profile; type: in vivo, human; conditions: 10 ng/kg/min intravenous over 14 days, 4 subjects
Procedure: Growth hormone releasing factor was administered by mechanical pump which delivered a dose of 10 ng/kg/min by the intravenous route over 14 days in 4 subjects aged 26 to 31 years. The profile of growth hormone secretion was measured over 24 hours before the initiation of the infusion, on the fourteenth day of the infusion, and two weeks after stopping the infusion.

growth = conditions: normal rat, cited from earlier work
growth hormone secretion [5] = assay: 24 hour infusion in healthy young men with supramaximal bolus after 23.5 hours; type: in vivo, human; conditions: 2 ng/kg/min for 24 hours, six healthy young men
Procedure: as §1

growth hormone secretion [6] = conditions: after 6 hours infusions of 1, 3.3 and 10 ng/kg/min; cited from earlier work

growth hormone releasing factor
blood pressure, pulse rate, body temperature [1]: No changes in blood pressure, pulse rate, or body temperature | side effects [1]: no side effects | release of growth hormone in response to supramaximal dose at end of infusion (growth hormone secretion [2]; end of the 6 or 24 hour infusion): reduced release of growth hormone | growth hormone secretion over the duration of the infusion (growth hormone secretion [2]; short-term administration (6-24 hours)): stimulates growth hormone secretion intermittently | desensitization to growth hormone releasing factor (growth hormone secretion [3]): partial homologous desensitization | response to a supramaximal dose of growth hormone releasing factor (growth hormone secretion [4]): normal or accentuated responses | growth hormone secretion (growth hormone secretion [4]; measured on fourteenth day of infusion): augmented growth hormone secretion | serum Insulin Growth Factor-1 (IGF-1) level (growth hormone secretion [4]; marker of biological activity of growth hormone): rise in serum Insulin Growth Factor-1 (IGF-1) level | growth, continuous administration (growth; continuous administration): does not | growth, pulsatile administration (growth; pulsatile administration): accelerates growth

growth hormone releasing factor-40 (YADAIFTNSYRKVLGQLSARKLLQDIMSRQQGESNQERGA; Somatoliberin; UniProt P01286 32-71, looked up, fragment) [40 amino acid form of human growth hormone releasing factor]
effect on naturally occuring growth hormone pulses (growth hormone secretion [5]): augmentation of naturally occuring growth hormone pulses | growth hormone secretion compared to vehicle infusion (growth hormone secretion [5]): greater growth hormone secretion than did vehicle infusion | pulsatile growth hormone secretion during infusion (growth hormone secretion [5]): pulsatile growth hormone secretion was maintained | growth hormone response to supramaximal bolus at end of infusion (growth hormone secretion [6]): inversely related to the 6 hour infusion dose
